The values that follow come from patent US5547935A (Chiron Corporation, priority 1994, dated 1996).

In data set [1] the target is T1, EGF receptor on fixed A431 cells (Homo sapiens, UniProt P00533).
T1 construct: Confluent A43 1 cells were fixed in 96-well microtiter plates using 0.05% formaldehyde; endogenous in cells; host or cells: A431 cells, formaldehyde-fixed
The data set can be described thus: Receptor affinity: binding to fixed A431 cells. The settings on record: 1 nM, 2 hr at 37° C. As for the experimental part: Confluent A43 1 cells were fixed in 96-well microtiter plates using 0.05% formaldehyde for 10 min at room temperature, then washed 3× with 200 μL PBS with 0.1% bovine serum albumin (BSA).
The wells were then washed 3× with 200 μL of PBS/0.1% BSA, detached, and counted in a gamma counter.

The subject of data set [2] is Human foreskin fibroblasts. As to the kind of experiment: Mitogenicity: 3H-thymidine incorporation. In kind it is cell-based. As for the experimental part: Mitogenicity was assayed substantially following the method described by D. J. Knauer et al, J Biol Chem (1984) 259:5623-31.
Human foreskin fibroblasts were obtained and frozen at the thirteenth passage. Thawed cells are trypsinized, pelleted, and resuspended in a medium containing DMEM, 5% FBS, 1 mM sodium pyruvate, 300 μg/mL L-glutamine, 100 U/mL penicillin, and 100 μg/mL streptomycin. The cells are counted using a hemocytometer and 0.4% trypan blue. The cell concentration is adjusted to 1×10^-5 cells/mL using the same medium, and dispensed onto microtiter plates (100 μL/well). The plates are incubated for 5 days in a tissue culture incubator.
EGF muteins prepared in Example 1 and native sequence EGF are dissolved to make 100 μg/mL solutions. These solutions are used to make serial dilutions of 20, 10, 5, 2.5, 1.25, 0.625, 0.3125, 0.15625, 0.078125, 0.0390625, 0.0195, and 0.00975 ng/mL. Ten μL of each dilution is added to a microtiter plate well, and the plates returned to the incubator and incubated at 37° C. for 18 hours. The cells are then pulsed with ^3 H-thymidine (^3 H-T), by adding 10 μL of ^3 H-T (100 μCi/mL) to each well, and incubating for 24 hours. The ^3 H-T is then expelled, and the plates rinsed twice with PBS. To fix the cells, the plates are then incubated twice with 5% trichloroacetic acid (TCA) for 15 minutes at room temperature, followed by incubation twice with 100% MeOH. The plates are then air-dried.
The well contents are then solubilized using 0.3 N NaOH (50 μL/well) for 30 minutes, and transferred to scintillation vials. Scintillation fluid (Ready-Solv EP, 4 mL) is then added to each vial, and the vials counted for 1 min with a 0-1,000 (^3 H) window in a Beckman LS3801 counter.

Data set [3] in a line: EGF biological activity, test not specified. From the text:
C. […] EGF-D represents the 52-amino acid sequence obtained by removing the C-terminal arg, while EGF-B corresponds to EGF-D wherein the C-terminal arg-leu has been removed. EGF-C appears to be EGF-D in which Met21 has been oxidized, while EGF-A appears to be EGF-B with Met21 oxidized. EGF-D is reported to be stable when stored as a lyophilized powder.
EGF may also be altered by adding an N-terminal extension. EGF-flag (.phi.EGF) derivatives have the additional sequence […], which permits rapid purification of peptides by affinity chromatography on anti-flag MAb columns (International Biotechnology Inc.).

The conditions of data set [4]: stored as a lyophilized powder; cited from earlier work.
For data set [5] the following is noted: forms isolated from recombinant yeast culture; cited from earlier work.

For the substance “.phi.EGF-W13: flag-extended EGF mutein with Trp for Tyr13 (NSDSECPLSHDGWCLHDGVCMYIEALDKYACNCVVGYIGERCQYRDLKWWELR; not fully specified; Epidermal growth factor N-terminal FLAG extension; UniProt P01133 971-1023, looked up, variant Y13W)”, in data set [1], the Affinity is 73 percentage of control (EGF). Besides, the Mitogenicity in data set [2] was 216 percentage of control (EGF). Moreover, in data set [3], the “biological activity of EGF-flag derivatives” value is reported as “biologically active”.

Regarding “.phi.EGF-E12: flag-extended EGF mutein with Glu for Gly12 (NSDSECPLSHDEYCLHDGVCMYIEALDKYACNCVVGYIGERCQYRDLKWWELR; not fully specified; Epidermal growth factor N-terminal FLAG extension; UniProt P01133 971-1023, looked up, variant G12E)”, in data set [3], the “biological activity of EGF-flag derivatives” value is listed as “biologically active”.

In the case of “EGF-A41: EGF mutein with Ala at position 41”, the Mitogenicity in data set [2] is recorded as < 0.4 percentage of control (EGF).

Regarding “.phi.EGF-Q12: flag-extended EGF mutein with Gln at position 12 (NSDSECPLSHDQYCLHDGVCMYIEALDKYACNCVVGYIGERCQYRDLKWWELR; not fully specified; Epidermal growth factor N-terminal FLAG extension; UniProt P01133 971-1023, looked up, variant G12Q)”, the Affinity in data set [1] is 154 percentage of control (EGF). For the same substance, the Mitogenicity in data set [2] was 286 percentage of control (EGF).

For “EGF-A43: EGF mutein with Ala at position 43 (Glu43 replaced)”, the Mitogenicity in data set [2] was 63 percentage of control (EGF).

Consider “EGF-D: 52-amino acid sequence obtained by removing the C-terminal arg of EGF (NSDSECPLSHDGYCLHDGVCMYIEALDKYACNCVVGYIGERCQYRDLKWWEL; not fully specified; Epidermal growth factor; UniProt P01133 971-1022, looked up, fragment)”, for which the stability on storage entry in data set [4] is reported as “stable”. Moreover, the EGF activity result in data set [5] is “full EGF activity”.

As for “EGF-A15: EGF mutein with Ala at position 15”, the Mitogenicity in data set [2] is listed as 3 percentage of control (EGF).

Regarding “EFG: wild-type human epidermal growth factor, 53-amino acid protein; control of Table 1 [reference compound]”, the Mitogenicity in data set [2] is 100 percentage of control (EGF).

On to “EGF-B: EGF-D wherein the C-terminal arg-leu has been removed (NSDSECPLSHDGYCLHDGVCMYIEALDKYACNCVVGYIGERCQYRDLKWWE; not fully specified; Epidermal growth factor; UniProt P01133 971-1021, looked up, fragment)”, for which, in data set [5], the EGF activity result is listed as “full EGF activity”.
